Data from PubChem BioAssay AID504335 (Southern Research Specialized Biocontainment Screening …, 2011).
Calls of active or inactive are those of the source. No rule for the calls is given here.

Tested on: not listed separately
Test: dose response, cytotoxicity control for M. tuberculosis inhibitor project, purified and synthesized compounds (AID 504335)
Conditions: mammalian cell cytotoxicity, viability; at 100 µM (top of the series)
For COC(=O)CCc1nc2c(C#N)c(-c3ccc(Cl)cc3)ccn2n1, the viability was 99.2% (inactive). In the case of COc1cc(NC(=O)C/C(C)=N/NC(=O)c2ccccn2)c(OC)cc1Cl, the viability is reported as 92.4% (inactive). With CCc1ccc(/C=C2/C(=O)N(C)C(=S)N2CC(=O)OC)s1 the viability was 92% (inactive). For CCOC(=O)COc1ccc(/C=C2\NC(=S)N(CC)C2=O)cc1, the viability was 94.5% (inactive). For COC(=O)C1CC(=O)N(c2ccc(OCc3ccccc3Cl)cc2)C1 (centres undefined), the viability was 90.6% (inactive). In the case of Cc1ccc(NC(=O)C2C3/C=C\CCCCC32)cc1C (centres undefined), the viability is reported as 87.6% (inactive). For Cc1nc(SCC(=O)NC2CCCCC2)[nH]c(=O)c1C, the viability was 88.8% (inactive). With O=C(/C=C\c1cccs1)N1CCN(Cc2ccc3c(c2)OCO3)CC1 the viability was 87.7% (inactive). For O=C(CSc1nc2ccccc2c(=O)[nH]1)NCc1ccc(Cl)cc1, the viability was 83% (inactive). For COC(=O)C(C)Oc1ccc(-c2nccc(-c3ccccn3)n2)cc1 (centres undefined), the viability was 95.7% (inactive). With O=C(CSc1nc2ccccc2c(=O)[nH]1)NC1CCCCC1 the viability was 81.8% (inactive). With CCOC(=O)COn1c2c(c3c4no[n+]([O-])c4ccc31)CCCC2 the viability was 87.8% (inactive).

Tested on: mammalian cell cytotoxicity, viability
Test: as above
Conditions: not given
For Oc1ccccc1/C=N/Nc1ccnc(SCc2ccccc2)n1, the CC50 was 93.8 µM. For S=c1nc[nH]c2nc[nH]c12, the CC50 was 38.7 µM. In the case of CCC(C)Nc1ccc(NC(C)CC)cc1 (centres undefined), the CC50 is reported as 14.3 µM. O=C(NCC(c1cccs1)N1CCOCC1)c1cc([N+](=O)[O-])cc([N+](=O)[O-])c1 (centres undefined) gave a CC50 of 96.7 µM. With CC(=NCc1ccc2c(c1)OCO2)C1=C(O)c2ccccc2C1=O the CC50 was > 100 µM (inactive). COC(=O)c1cc(=O)n(-c2ccc(F)cc2)c(=Nc2ccc(F)cc2)s1 showed a CC50 of 25.7 µM. Compound CCOC(=O)c1ccc(NC(=O)Cn2ncc(Cl)c(Cl)c2=O)cc1 has a CC50 of 7.71 µM. With Cc1ccc2c(c1)c(C1=c3ccccc3=NC1=O)c(O)n2C the CC50 was 10.1 µM. With Cc1cccc(/C=C/C(=O)c2ccc([N+](=O)[O-])o2)c1 the CC50 was 20.2 µM. With CNc1nc(SCc2ccccc2Cl)nc2c1CCCC2 the CC50 was 36 µM. With Cc1ccc2ccc3ccc(C)nc3c2n1 the CC50 was 58.5 µM. Compound CC(C)NC(=O)c1sc(=S)n2c1[nH]c(=O)c1ccc(C(=O)NCCc3ccc(Cl)cc3)cc12 has a CC50 of 99.9 µM.
